Test results from ChEMBL document CHEMBL1136890, “Design, synthesis and anticancer activities of hybrids of indole and barbituric acids--identification of highly promising leads” (2009).

Key:
Assay type in all cases: functional
UO-31 = assay: Growth inhibition of human UO31 cells at 10 uM; conditions: read-out: GI
TK-10 [1] = assay: Growth inhibition of human TK10 cells at 10 uM; conditions: read-out: GI
[2] = Growth inhibition of human NCI60 cells
K562 = assay: Growth inhibition of human K562 cells; conditions: for CC50: read-out: LC50 (the source's name)
HOP-92 = assay: Growth inhibition of human HOP92 cells; conditions: for CC50: read-out: LC50 (the source's name)
NCI-H226 = assay: Growth inhibition of human NCI-H226 cells
NCI-H460 = assay: Growth inhibition of human NCI-H460 cells
COLO 205 = assay: Growth inhibition of human COLO205 cells; conditions: for CC50: read-out: LC50 (the source's name)
SF-295 = assay: Growth inhibition of human SF295 cells; conditions: for CC50: read-out: LC50 (the source's name)
SK-MEL-2 = assay: Growth inhibition of human SK-MEL-2 cells; conditions: for CC50: read-out: LC50 (the source's name)
UACC-62 = assay: Growth inhibition of human UACC62 cells
IGROV-1 = assay: Growth inhibition of human IGROV1 cells; conditions: for CC50: read-out: LC50 (the source's name)
OVCAR-4 = assay: Growth inhibition of human OVCAR4 cells; conditions: for CC50: read-out: LC50 (the source's name)
OVCAR-5 = assay: Growth inhibition of human OVCAR5 cells; conditions: for CC50: read-out: LC50 (the source's name)
A498 = assay: Growth inhibition of human A498 cells; conditions: for CC50: read-out: LC50 (the source's name)
CAKI-1 = assay: Growth inhibition of human Caki1 cells
TK-10 [3] = assay: Growth inhibition of human TK10 cells; conditions: for CC50: read-out: LC50 (the source's name)
T47D = assay: Growth inhibition of human T47D cells; conditions: for CC50: read-out: LC50 (the source's name)
MDA-MB-468 = assay: Growth inhibition of human MDA-MB-468 cells; conditions: for CC50: read-out: LC50 (the source's name)
RXF 393 = assay: Growth inhibition of human RXF393 cells at 10 uM; conditions: read-out: GI

O=C1NC(=O)C(=Cc2cn(C(=O)c3ccc(Cl)cc3)c3ccccc23)C(=O)N1
inhibition of growth at 10 µM (UO-31): 22%

O=C1NC(=O)C(=Cc2c[nH]c3ccccc23)C(=O)N1
inhibition of growth at 10 µM (UO-31): 39%

Cc1ccc(S(=O)(=O)n2cc(C=C3C(=O)NC(=O)NC3=O)c3ccccc32)cc1
inhibition of growth at 10 µM (UO-31): 32%

CN1C(=O)C(=Cc2c[nH]c3ccccc23)C(=O)N(C)C1=O
inhibition of growth at 10 µM (UO-31): 33%

O=C1NC(=O)C(=Cc2cn(Cc3ccccc3)c3ccccc23)C(=O)N1
inhibition of growth at 10 µM (TK-10 [1]): 71%
inhibition of growth at 10 µM (UO-31): 29%
GI50 [2]: 7.5 µM
GI50 (K562): 3.1 µM
TGI (K562): 23 µM
CC50 (K562): > 100 µM
GI50 (HOP-92): 1.5 µM
TGI (HOP-92): 15 µM
CC50 (HOP-92): 58.8 µM
GI50 (NCI-H226): 5.4 µM
LC50 (NCI-H226): > 100 µM
TGI (NCI-H226): 28 µM
GI50 (NCI-H460): 0.3 µM
LC50 (NCI-H460): 63 µM
TGI (NCI-H460): 16.5 µM
GI50 (COLO 205): 1.4 µM
TGI (COLO 205): 10.9 µM
CC50 (COLO 205): 41.6 µM
GI50 (SF-295): 3.3 µM
TGI (SF-295): 70.7 µM
CC50 (SF-295): > 100 µM
GI50 (SK-MEL-2): 2.9 µM
TGI (SK-MEL-2): 23.4 µM
CC50 (SK-MEL-2): > 100 µM
GI50 (UACC-62): 1.6 µM
LC50 (UACC-62): > 100 µM
TGI (UACC-62): 16.5 µM
GI50 (IGROV-1): 0.48 µM
TGI (IGROV-1): 10.4 µM
CC50 (IGROV-1): 63 µM
GI50 (OVCAR-4): 2 µM
TGI (OVCAR-4): 44 µM
CC50 (OVCAR-4): > 100 µM
GI50 (OVCAR-5): 0.3 µM
TGI (OVCAR-5): 3.8 µM
CC50 (OVCAR-5): 39.8 µM
GI50 (A498): 0.03 µM
TGI (A498): 0.26 µM
CC50 (A498): 1.09 µM
GI50 (CAKI-1): 4.6 µM
LC50 (CAKI-1): 93 µM
TGI (CAKI-1): 25.7 µM
GI50 (TK-10 [3]): 2 µM
TGI (TK-10 [3]): 8.3 µM
CC50 (TK-10 [3]): > 100 µM
GI50 (T47D): 4.5 µM
TGI (T47D): 22.3 µM
CC50 (T47D): 95 µM
GI50 (MDA-MB-468): 0.1 µM
TGI (MDA-MB-468): 0.38 µM
CC50 (MDA-MB-468): > 100 µM

Cc1ccc(S(=O)(=O)n2cc(C=C3C(=O)N(C)C(=O)N(C)C3=O)c3ccccc32)cc1
inhibition of growth at 10 µM (UO-31): 41%
inhibition of growth at 10 µM (RXF 393): 52%

O=C1NC(=O)C(=Cc2cn(C(=O)c3ccccc3)c3ccccc23)C(=O)N1
inhibition of growth at 10 µM (UO-31): 36%
inhibition of growth at 10 µM (RXF 393): 55%

CN1C(=O)C(=Cc2cn(Cc3ccccc3)c3ccccc23)C(=O)N(C)C1=O
inhibition of growth at 10 µM (TK-10 [1]): 95%
inhibition of growth at 10 µM (UO-31): 36%
GI50 [2]: 13.8 µM
GI50 (K562): 4.3 µM
TGI (K562): > 100 µM
CC50 (K562): > 100 µM
GI50 (HOP-92): 8.3 µM
TGI (HOP-92): 50 µM
CC50 (HOP-92): > 100 µM
GI50 (NCI-H226): 3.4 µM
LC50 (NCI-H226): > 100 µM
TGI (NCI-H226): 27 µM
GI50 (NCI-H460): 4.1 µM
LC50 (NCI-H460): > 100 µM
TGI (NCI-H460): > 100 µM
GI50 (COLO 205): 0.7 µM
TGI (COLO 205): 9.1 µM
CC50 (COLO 205): > 100 µM
GI50 (SF-295): 1.1 µM
TGI (SF-295): > 100 µM
CC50 (SF-295): > 100 µM
GI50 (SK-MEL-2): 3 µM
TGI (SK-MEL-2): 45.7 µM
CC50 (SK-MEL-2): > 100 µM
GI50 (UACC-62): 1 µM
LC50 (UACC-62): > 100 µM
TGI (UACC-62): 12.5 µM
GI50 (IGROV-1): 0.06 µM
TGI (IGROV-1): 0.26 µM
CC50 (IGROV-1): 0.85 µM
GI50 (OVCAR-4): 6.1 µM
TGI (OVCAR-4): > 100 µM
CC50 (OVCAR-4): > 100 µM
GI50 (OVCAR-5): 0.1 µM
TGI (OVCAR-5): 0.67 µM
CC50 (OVCAR-5): > 100 µM
GI50 (A498): 0.2 µM
TGI (A498): 0.64 µM
CC50 (A498): 2.29 µM
GI50 (CAKI-1): 0.5 µM
LC50 (CAKI-1): > 100 µM
TGI (CAKI-1): 6.4 µM
GI50 (TK-10 [3]): 3.1 µM
TGI (TK-10 [3]): 57.5 µM
CC50 (TK-10 [3]): > 100 µM
GI50 (T47D): 5 µM
TGI (T47D): > 100 µM
CC50 (T47D): > 100 µM
GI50 (MDA-MB-468): 0.02 µM
TGI (MDA-MB-468): 0.06 µM
CC50 (MDA-MB-468): 0.69 µM
inhibition of growth at 10 µM (RXF 393): 43%

CN1C(=O)C(=Cc2cn(C(=O)c3ccc(Cl)cc3)c3ccccc23)C(=O)N(C)C1=O
inhibition of growth at 10 µM (RXF 393): 33%

COc1ccc2c(c1)c(CC(=O)O)c(C)n2C(=O)c1ccc(Cl)cc1 [INDOMETHACIN]
GI50 [2]: 64.3 µM

CN1C(=O)C(=Cc2cn(C(=O)c3ccccc3)c3ccccc23)C(=O)N(C)C1=O
inhibition of growth at 10 µM (UO-31): 36%
inhibition of growth at 10 µM (RXF 393): 55%

O=c1[nH]cc(F)c(=O)[nH]1 [FLUOROURACIL]
GI50 [2]: 17.7 µM
